Measured values as given in PMC12643354, “From Oxygen to Tellurium: The Impact of the Chalcogen on Nucleophilicities and Basicities of Isochalcogenourea Catalysts” (Angewandte Chemie (International Ed. in English), 2025).

Key:
[1] = Brønsted basicity pKaH by chemical shift imaging NMR method in DMSO and MeCN; conditions: for Brønsted basicity pKaH(DMSO): in DMSO; for Brønsted basicity pKaH(MeCN): in MeCN
Procedure: Recently, Wiskur's group reported potentiometrically determined pK aH values (that is, the pK a of the conjugate acids) of achiral ITUs based on the BTM and DHPB scaffolds in aqueous media.^[ [89], [128] ^] […] In this work, we applied this NMR spectroscopic method to determine the pK aH values of further IChUs in DMSO and MeCN (Supporting Information).
First, a stock solution containing the analyte, two basic indicators and tetramethyl silane was prepared with the respective solvent (DMSO or acetonitrile).
Then 5-10 mg of acid were weighed into a NMR tube and subsequently covered with glass beads.
Figure S50: 5-10 mg of acid in Figure S51: Cover with 1 mm
Afterwards, 550 μL of the stock solution was layered carefully over the glass beads and the acid. The sample is then put in a 28 °C water bath (for DMSO) for 20 - 24h or left on the bench at 22 °C (for acetonitrile) for 1.5 - 2 h and then the NMR measurement was carried out at 20 °C.
Figure S52: Overlay the acid with the Figure S54: Visualized gradient after stock solution of two indicators and the 18h in DMSO (with Bromthymolblue) […]
Figure S53: Development of gradients in temperated water S145 […]
13.4 Indicator and Acid Data
Table S67: Limiting shifts (δH for the fully protonated and δL for the free base), pKas and abbreviations of indicators and acids in acetonitrile.
Table S68: Limiting shifts (δH for the fully protonated and δL for the free base), pKas and abbreviations of indicators

[2] = Kinetics of IChU reactions with reference electrophile (pyr)2CH+ (stopped-flow photometry); assay type: physicochemical; conditions: E = −7.69, dichloromethane, 20 °C
Text: (§1) In order to systematically investigate the influence of the chalcogen atom on the nucleophilicity of DHPB‐derived IChUs (Ch = O, S, Se, and Te), we utilized Mayr's benzhydrylium methodology.^[ [107] ^]
In accordance with observations in previous studies on ITU reactivity,^[ [119] ^] mixing the strongly colored benzhydrylium tetrafluoroborates 18 with excess IChUs in dichloromethane gave rise to decolorization of the solutions due to the formation of isochalcogenouronium tetrafluoroborates 19, which are colourless (Figure 3a). Owing to reversibility of the C─N bond formation, generated adducts 19 from the IChU/benzhydrylium reactions were not isolated but characterized by ^1H, ^13C, and ^77Se NMR spectroscopy (the ^77Se nucleus is remarkably sensitive with observed changes of around 100 ppm when comparing the ^77Se resonances of free ISeUs with those of the corresponding selenouronium tetrafluoroborates^[ [95] ^]). The kinetics of the IChU reactions with the reference electrophiles 18 were traced by photometric methods using standard stopped‐flow techniques. To establish pseudo first‐order conditions and to secure a sufficient decay of the benzhydrylium's absorbance during the course of the reactions, the IChUs were employed at higher concentrations than the benzhydrylium ions. First‐order rate constants k obs (s^−1) were determined by fitting the mono‐exponential decay function in Equation (2) to the decreasing absorbance (A) of 18 during their reaction with the IChUs as exemplified for the reaction of ITeU3 with (ind)2CH^+ in Figure 3b. (2) A=A0e^−kobst+C […]
First‐order rate constants k obs correlated linearly with the IChU concentration. Therefore, second‐order rate constants k 2 (L mol^−1 s^−1) were determined from the slope of the linear regression curves (Figure 3c ^[ [95] ^]). Second‐order rate constants k 2 for all kinetically investigated reactions of DHPB‐derived IChUs (Ch = O, S, Se, and Te) with benzhydrylium ions 18 are gathered in Table 1.
Apart from CH2Cl2 also MeCN and THF are solvents that are commonly employed in reactions involving isochalcogenoureas. […]

[3] = Mayr nucleophilicity parameters N and sN (benzhydrylium methodology, Mayr-Patz equation); assay type: physicochemical; conditions: dichloromethane, 20 °C
Text: (1) Mayr-Patz Equation: lgk20^∘C=sN(N+E)
The MPE is a linear‐free‐energy relationship that characterizes electrophiles by the electrophilicity parameter E and nucleophiles by the solvent‐dependent parameters N (nucleophilicity) and s N (sensitivity toward changes in the electrophile reactivity). By using the MPE (Equation (1)), the construction of comprehensive nucleophilicity and electrophilicity scales becomes possible, which facilitate the comparison of various classes of Lewis base organocatalysts.^[ [110], [111], [112], [113], [114], [115], [116], [117], [118], [119], [120] ^]
as §1
Figure 4 illustrates the linear correlations of the second‐order rate constants (lg k 2) with the electrophilicities E of Ar2CH^+ (18), which makes it possible to determine the Mayr nucleophilicity parameters N (and s N) for the DHPB‐derived IChUs IU3, ITU3, ISeU3, and ITeU3. […]
Figure 4 Linear correlations of second‐order rate constants (lg k 2) for the reactions of IU3, ITU3, ISeU3, and ITeU3 with Ar2CH^+ 18 (in dichloromethane at 20 °C) with the electrophilicities E of 18. The slopes of the linear correlations equal the nucleophile‐dependent sensitivity parameter s N. Intercepts on the abscissa reflect the nucleophilicity parameter N (N = –E at lg k 2 = 0).

[4] = Kinetics of IChU reactions with reference electrophile (mpa)2CH+ (stopped-flow photometry); assay type: physicochemical; conditions: E = −5.89, dichloromethane, 20 °C
Text: as §1
In accordance with observations in previous studies on ITU reactivity,^[ [119] ^] mixing the strongly colored benzhydrylium tetrafluoroborates 18 with excess IChUs in dichloromethane gave rise to decolorization of the solutions due to the formation of isochalcogenouronium tetrafluoroborates 19, which are colourless (Figure 3a). […] To establish pseudo first‐order conditions and to secure a sufficient decay of the benzhydrylium's absorbance during the course of the reactions, the IChUs were employed at higher concentrations than the benzhydrylium ions. First‐order rate constants k obs (s^−1) were determined by fitting the mono‐exponential decay function in Equation (2) to the decreasing absorbance (A) of 18 during their reaction with the IChUs as exemplified for the reaction of ITeU3 with (ind)2CH^+ in Figure 3b. […]
First‐order rate constants k obs correlated linearly with the IChU concentration. Therefore, second‐order rate constants k 2 (L mol^−1 s^−1) were determined from the slope of the linear regression curves (Figure 3c ^[ [95] ^]). […]

| Compound | Brønsted basicity pKaH(DMSO) [1] | Brønsted basicity pKaH(MeCN) [1] | Second-order rate constant k2 exptl [2] [M⁻¹ s⁻¹] | Nucleophile-specific sensitivity parameter sN [3] | Nucleophilicity parameter N [3] | Second-order rate constant k2 exptl [4] [M⁻¹ s⁻¹] |
| --- | --- | --- | --- | --- | --- | --- |
| c1ccc2c(c1)[Se]C1=NCCCN12 [ISeU3, SeDHPB] | 8.3 | 17.9 | 107000 | 0.66 | 15.16 | 1.16e+06 |
| c1ccc2c(c1)OC1=NCCCN12 [IU3, ODHPB] | 6.5 | 16.9 | 7930 | 0.69 | 13.31 | 129000 |
